The source of these data is patent US9475822B2, “Substituted 2- amidoquinazol-4-ones as matrix metalloproteinase-13 inhibitors” (Takeda Pharmaceutical Company Limited, priority 2004, dated 2016).

Test system in one series: not given
Experiment: not given
Details: not given
With `COc1cccc(CNC(=O)c2nc3ccc(Cl)cc3c(=O)[nH]2)c1` [Example 83, 6-chloro-N-{[3-(methyloxy)phenyl]methyl}-4-oxo-3,4-dihydroquinazoline-2-carboxamide], the melting point (commonly the temperature, or range, at which the solid turns liquid) is 203 to 206 °C.
In the case of `COc1cccc(CNC(=O)c2nc3ccc(N)cc3c(=O)[nH]2)c1` [Example 100, 6-amino-N-{[3-(methyloxy)phenyl]methyl}-4-oxo-3,4-dihydroquinazoline-2-carboxamide], the melting point fell in the range of 223 to 225 °C.
`COc1cccc(CNC(=O)c2nc3ccc(I)cc3c(=O)[nH]2)c1` [Example 104, 6-iodo-N-{[3-(methyloxy)phenyl]methyl}-4-oxo-3,4-dihydroquinazoline-2-carboxamide] showed a melting point of 219 to 220 °C.
In the case of `COc1cccc(CNC(=O)c2nc3ccc(CN4CCOCC4)cc3c(=O)[nH]2)c1` [Example 116, N-{[3-(methyloxy)phenyl]methyl}-6-(morpholin-4-ylmethyl)-4-oxo-3,4-dihydroquinazoline-2-carboxamide], the melting point was in the range of 126 to 129 °C.
With `COc1cccc(CNC(=O)c2nc3cnn(CCCc4ccccc4)c3c(=O)[nH]2)c1` [Example 243, N-(3-methoxybenzyl)-7-oxo-1-(3-phenylpropyl)-6,7-dihydro-1H-pyrazolo[4,3-d]pyrimidine-5-carboxamide], the melting point lay in the range of 138 to 140 °C.
On to `COc1cc(CNC(=O)c2nc3cnn(CCCc4ccccc4)c3c(=O)[nH]2)ccc1F` [Example 244, N-(4-fluoro-3-methoxybenzyl)-7-oxo-1-(3-phenylpropyl)-6,7-dihydro-1H-pyrazolo[4,3-d]pyrimidine-5-carboxamide], for which the melting point lay in the range of 155 to 157 °C.
Take `COc1cccc(CNC(=O)c2nc3cnn(CCOc4ccc(C(=O)O)cc4)c3c(=O)[nH]2)c1` [Example 250, 4-[2-(5-{[(3-methoxybenzyl)amino]carbonyl}-7-oxo-6,7-dihydro-1H-pyrazolo[4,3-d]pyrimidin-1-yl)ethoxy]benzoic acid]: the melting point was in the range of 230 to 231 °C.
The compound `CCOC(=O)Cc1csc2nc(C(=O)NCc3cccc(OC)c3)[nH]c(=O)c12` [Example 251, ethyl (2-{[(3-methoxybenzyl)amino]carbonyl}-4-oxo-3,4-dihydrothieno[2,3-d]pyrimidin-5-yl)acetate] displayed a melting point of 169 to 171 °C.
`CCOC(=O)Cc1ccc(OCc2csc3nc(C(=O)NCc4cccc(OC)c4)[nH]c(=O)c23)cc1` [Example 256, ethyl {4-[(2-{[(3-methoxybenzyl)amino]carbonyl}-4-oxo-3,4-dihydrothieno[2,3-d]pyrimidin-5-yl)methoxy]phenyl}acetate] registered a melting point of 175 to 178 °C.
Same read-out and setting: for `COc1cccc(CNC(=O)c2nc3scc(COc4ccc(CC(=O)O)cc4)c3c(=O)[nH]2)c1` [Example 257, {4-[(2-{[(3-methoxybenzyl)amino]carbonyl}-4-oxo-3,4-dihydrothieno[2,3-d]pyrimidin-5-yl)methoxy]phenyl}acetic acid] the value was 228 to 230 °C.

For a further series, the target named is T1, MMP-13 (Homo sapiens, UniProt P45452).
T1 construct: purchased GenzymeTechne
Put plainly: MMP-13 inhibitory activity (fluorogenic peptide substrate enzyme assay). To be noted: compound 1 μM; substrate Cy3-PLGLK(Cy5Q)AR-NH2; 37° C., 40 min. Type of series: biochemical. As to the method:
To 10 μg of MMP-13 precursor (GenzymeTechne) was added 1 ml of assay buffer (50 mM Tris-HCl (pH 7.5), 10 mM CaCl2, 150 mM NaCl, 0.05% Brij-35), and 4-aminophenylmercuric acid (Sigma) was added to the final concentration of 1 mM. The MMP-13 precursor was activated by incubating at 37° C. for 2 hrs.
In a 96 well black plate (Corning), to 6.3 ng/ml of MMP-13 solution (49 μl) diluted with assay buffer was added the test compound (1 μl) diluted with dimethyl sulfoxide (DMSO) and 620 nM Cy3-PLGLK(Cy5Q)AR—NH2 (50 μl, synthesized by Amersham Biosciences) in assay buffer was added to start the enzyme reaction. After incubation at 37° C. for 40 min, 500 mM EDTA solution (6 μl) was added to stop the reaction. For measurement, Farcyte (Amersham Biosciences) was used to measure at excitation wavelength 535 nm and measurement wavelength 595 nm.
T: value of well with addition of DMSO instead of test compound
C: value of well with addition of DMSO instead of test compound and addition of EDTA solution before addition of substrate solution
X: value of well with addition of test compound
Consider `COc1cccc(CNC(=O)c2nc3ccc(F)c(OCCc4ccc(C(=O)[O-])cc4)c3c(=O)[n-]2)c1.[Na+].[Na+]` [Example 287, Disodium 4-[2-({6-fluoro-2-[({[3-(methyloxy)phenyl]methyl}amino)carbonyl]-4-oxo-4H-quinazolin-3-id-5-yl}oxy)ethyl]benzoate], for which the “MMP-13 activity inhibitory rate (%)” value amounted to 98%.
Turning to `COc1cccc(CNC(=O)c2nc3scc(COCc4ccc(C(=O)[O-])cc4)c3c(=O)[n-]2)c1.[Na+].[Na+]` [Example 384, Disodium 4-{[({2-[({[3-(methyloxy)phenyl]methyl}amino)carbonyl]-4-oxo-4H-thieno[2,3-d]pyrimidin-3-id-5-yl}methyl)oxy]methyl}benzoate], the “MMP-13 activity inhibitory rate (%)” value is 91%.
With `COc1cccc(CNC(=O)c2nc3scc(COCc4ccc(C(=O)[O-])cc4)c3c(=O)[nH]2)c1.[K+]` [Example 385, Potassium 4-{[({2-[({[3-(methyloxy)phenyl]methyl}amino)carbonyl]-4-oxo-3,4-dihydrothieno[2,3-d]pyrimidin-5-yl}methyl)oxy]methyl}benzoate], the “MMP-13 activity inhibitory rate (%)” value was determined as 96%.

The same series, now with this note: compound 1 μM; substrate Cy3-PLGLK(Cy5Q)AR-NH2; 37° C., 40 min; 1 µM.
In the case of `COc1cccc(CNC(=O)c2nc3scc(COCc4ccc(C(=O)O)cc4)c3c(=O)[nH]2)c1` [Example 217, 4-{[({2-[({[3-(methyloxy)phenyl]methyl}amino)carbonyl]-4-oxo-3,4-dihydrothieno[2,3-d]pyrimidin-5-yl}methyl)oxy]methyl}benzoic acid], the “MMP-13 activity inhibitory rate (%)” value was 100%.
Turning to `COc1cccc(CNC(=O)c2nc3scc(COCc4ccc(C(=O)O)cc4)c3c(=O)[nH]2)c1` [Example 386, Dipotassium 4-{[({2-[({[3-(methyloxy)phenyl]methyl}amino)carbonyl]-4-oxo-4H-thieno[2,3-d]pyrimidin-3-id-5-yl}methyl)oxy]methyl}benzoate], the “MMP-13 activity inhibitory rate (%)” value was found to be 94%.

The series is the same for the next values; noted with them: compound 1 μM; substrate Cy3-PLGLK(Cy5Q)AR-NH2; 37° C., 40 min; read-out: MMP-13 activity inhibitory rate (%).
`COc1cccc(CNC(=O)c2nc3ccccc3c(=O)[nH]2)c1` [Example 1, N-{[3-(methyloxy)phenyl]methyl}-4-oxo-3,4-dihydroquinazoline-2-carboxamide]: the inhibition at 1 µM is 91%.
Turning to `COc1cccc(CNC(=O)c2nc3ccc(F)c(OCCc4ccc(C(=O)O)cc4)c3c(=O)[nH]2)c1` [Example 179, 4-[2-({6-Fluoro-2-[({[3-(methyloxy)phenyl]methyl}amino)carbonyl]-4-oxo-3,4-dihydroquinazolin-5-yl}oxy)ethyl]benzoic acid], the inhibition at 1 µM was 99%.
With `COc1cccc(CNC(=O)c2nc3sccc3c(=O)[nH]2)c1` [Example 209, N-{[3-(methyloxy)phenyl]methyl}-4-oxo-3,4-dihydrothieno[2,3-d]pyrimidine-2-carboxamide], the inhibition at 1 µM worked out at 94%.
The same measure, in the same setting: for `O=C(O)c1ccc(COCc2csc3nc(C(=O)NCc4ccc(F)c(Cl)c4)[nH]c(=O)c23)cc1` [Example 339, 4-[({[2-({[(3-chloro-4-fluorophenyl)methyl]amino}carbonyl)-4-oxo-3,4-dihydrothieno[2,3-d]pyrimidin-5-yl]methyl}oxy)methyl]benzoic acid] the value was 96%; for `Cc1cc(CNC(=O)c2nc3scc(COCc4ccc(C(=O)O)cc4)c3c(=O)[nH]2)ccc1F` [Example 341, 4-[({[2-({[(4-fluoro-3-methylphenyl)methyl]amino}carbonyl)-4-oxo-3,4-dihydrothieno[2,3-d]pyrimidin-5-yl]methyl}oxy)methyl]benzoic acid], 98%; for `CCOc1cccc(CNC(=O)c2nc3scc(COCc4ccc(C(=O)O)cc4)c3c(=O)[nH]2)c1` [Example 366, 4-{[({2-[({[3-(ethyloxy)phenyl]methyl}amino)carbonyl]-4-oxo-3,4-dihydrothieno[2,3-d]pyrimidin-5-yl}methyl)oxy]methyl}benzoic acid], 93%.

Still in this series, the particulars now being: read-out: MMP-13 activity inhibitory rate (%), compound 1 μM; substrate Cy3-PLGLK(Cy5Q)AR-NH2; 37° C., 40 min.
In the case of `COc1cccc(CNC(=O)c2nc3ccc(F)c(OCCc4ccc(C(=O)O)cc4)c3c(=O)[nH]2)c1` [Example 286, Sodium 4-[2-({6-fluoro-2-[({[3-(methyloxy)phenyl]methyl}amino)carbonyl]-4-oxo-3,4-dihydroquinazolin-5-yl}oxy)ethyl]benzoate], the inhibition at 1 µM was 97%.
For `COc1cccc(CNC(=O)c2nc3scc(COCc4ccc(C(=O)O)cc4)c3c(=O)[nH]2)c1` [Example 383, Sodium 4-{[({2-[({[3-(methyloxy)phenyl]methyl}amino)carbonyl]-4-oxo-3,4-dihydrothieno[2,3-d]pyrimidin-5-yl}methyl)oxy]methyl}benzoate], the inhibition at 1 µM came out at 91%.
